# Target: SYK (SYK(2-635)) (Homo sapiens (Human), UniProt P43405)
# Test: SYK enzyme assay (chip based microfluidic mobility shift assay)
# Assay type: biochemical
# Conditions: SYK kinase, 4 μM ATP/peptide solution, 30° C., 60 minutes, Caliper mobility shift
# Protocol: A number of compounds of the present invention were assayed in a chip based microfluidic mobility shift assay. All assays were performed in 384 well microtiter plates. Each assay plate contained 8-point serial dilutions for 40 test compounds, as well as four 8-point serial dilutions of staurosporine as reference compound, plus 16 high- and 16 low controls. Liquid handling and incubation steps were done on a Thermo CatX workstation equipped with a Innovadyne Nanodrop Express. Between pipetting steps, tips were cleaned in wash cycles using wash buffer. The assay plates were prepared by addition of 50 nl per well of compound solution in 90% DMSO. The kinase reactions were started by stepwise addition of 4.5 μl per well of peptide/ATP-solution (50 mM HEPES, pH 7.5, 1 mM DTT, 0.02% Tween20, 0.02% BSA, 0.6% DMSO, 10 mM beta-glycerophosphate, and 10 μM sodium orthovanadate, 1 mM MgCl2, 3 mM MnCl2, 4 μM ATP, 4 μM peptide (5-Fluo-Ahx-GAPDYENLQELNKK-Amid) and 4.5 μl per well of enzyme solution (50 mM HEPES, pH 7.5, 1 mM DTT, 0.02% Tween20, 0.02% BSA, 0.6% DMSO, 10 mM beta-glycerophosphate, and 10 μM sodium orthovanadate, 1 mM MgCl2, 3 mM MnCl2, 4 nM SYK (SYK(2-635), produced in-house from insect cells). Kinase reactions were incubated at 30° C. for 60 minutes and subsequently terminated by addition of 16 μl per well of stop solution (100 mM HEPES pH 7.5, 5% DMSO, 0.1% Caliper coating reagent, 10 mM EDTA, and 0.015% Brij35). Plates with terminated kinase reactions were transferred to the Caliper LC3000 workstations for reading. Phosphorylated and unphosphorylated peptides were separated using the Caliper microfluidic mobility shift technology. Briefly, samples from terminated kinase reactions were applied to the chip. Analytes are transported through the chip by constant buffer flow and the migration of the substrate peptide is monitored by the fluorescence signal of its label. Phosphorylated peptide (product) and unphosphorylated peptide (substrate) are separated in an electric field by their charge/mass ratio. Kinase activities were calculated from the amounts of formed phospho-peptide. IC50 values were determined from percent inhibition values at different compound concentrations by non-linear regression analysis.
# Test compounds were dissolved in DMSO (10 mM) and transferred into 1.4 mL flat bottom or V-shaped Matrix tubes carrying a unique 2D matrix. The stock solutions were stored at […] if not used immediately. For the test procedure the vials were defrosted and identified by a scanner whereby a working sheet was generated that guided the subsequent working steps.
# Compound dilutions were made in 96 well plates. This format enabled the assay of maximally 40 individual test compounds at 8 concentrations (single points) including 4 reference compounds. The dilution protocol included the production of “pre-dilution plates”, “master plates” and “assay plates”.
# Pre-dilution plates: 96 polypropylene well plates were used as pre-dilution plates. A total of 4 pre-dilution plates were prepared including 10 test compounds each on the plate positions A1-A10, one standard compound at A11 and one DMSO control at A12. All dilution steps were done on a HamiltonSTAR robot.
# Master plates: 30 μL of individual compound dilutions including standard compound and controls of the 4 “pre-dilution plates” were transferred into a 384 “master plate” including the following concentrations 1′810, 362, 72.5, […], 14.5, 2.9, 0.58 and 0.12 μM, respectively in 90% of DMSO.
# Assay plates: Identical “assay plates” were then prepared by pipetting 50 nL each of compound dilutions of the “master plates” into 384-well “assay plates” by means of a HummingBird 384-channel dispenser. These plates were used directly for the assay which was performed in a total volume of 9.05 μL. This led to a final compound concentration of 10, 2.0, 0.4, 0.08, 0.016, 0.0032, 0.00064 and 0.000128 μM and a final DMSO concentration of 0.5% in the assay.
row,Compound,IC50
1,"N[C@H]1CCCC[C@H]1Nc1cc2cn[nH]c(=O)c2c(Nc2ccc3nccnc3c2)n1 [Example 2.18, 7-((1R,2S)-2-Amino-cyclohexylamino)-5-(quinoxalin-6-ylamino)-3H-pyrido[3,4-d]pyridazin-4-one]",26 nM
2,"Cc1c[nH]c2c(Nc3nc(N[C@@H]4CCOC[C@@H]4N)cc4cn[nH]c(=O)c34)cc(F)cc12 [Example 3.3, 7-((3R,4R)-3-Amino-tetrahydro-pyran-4-ylamino)-5-(5-fluoro-3-methyl-1H-indol-7-ylamino)-3H-pyrido[3,4-d]pyridazin-4-one]",2 nM
3,"N[C@H]1CCCC[C@H]1Nc1nc(Nc2cccc3ncccc23)c2c(=O)[nH]ncc2c1F [Example 1.2, 7-((1R,2S)-2-Amino-cyclohexylamino)-8-fluoro-5-(quinolin-5-ylamino)-3H-pyrido[3,4-d]pyridazin-4-one]",44 nM
4,"N[C@H]1CCCC[C@H]1Nc1cc2cn[nH]c(=O)c2c(Nc2cnc3ccccc3c2)n1 [Example 2.11, 7-((1R,2S)-2-Amino-cyclohexylamino)-5-(quinolin-3-ylamino)-3H-pyrido[3,4-d]pyridazin-4-one]",5.4 nM
5,"Cc1c[nH]c2c(Nc3nc(N[C@@H]4CCCC[C@@H]4N)cc4cn[nH]c(=O)c34)cc(F)cc12 [Example 2.4, 7-((1R,2S)-2-Amino-cyclohexylamino)-5-(5-fluoro-3-methyl-1H-indol-7-ylamino)-3H-pyrido[3,4-d]pyridazin-4-one]",1.3 nM
6,"N[C@H]1COCC[C@H]1Nc1cc2cn[nH]c(=O)c2c(Nc2cccc3sccc23)n1 [Example 3.2, 7-((3R,4R)-3-Amino-tetrahydro-pyran-4-ylamino)-5-(benzo[b]thiophen-4-ylamino)-3H-pyrido[3,4-d]pyridazin-4-one]",1.8 nM
7,"Cc1c[nH]c2c(Nc3nc(N[C@@H]4CCOC[C@@H]4N)cc4cn[nH]c(=O)c34)cccc12 [Example 3.1, 7-((3R,4R)-3-Amino-tetrahydro-pyran-4-ylamino)-5-(3-methyl-1H-indol-7-ylamino)-3H-pyrido[3,4-d]pyridazin-4-one]",9 nM
8,"N[C@H]1CCCC[C@H]1Nc1cc2cn[nH]c(=O)c2c(Nc2ccc3ncccc3c2)n1 [Example 2.5, 7-((1R,2S)-2-Amino-cyclohexylamino)-5-(quinolin-6-ylamino)-3H-pyrido[3,4-d]pyridazin-4-one]",1.6 nM
9,"N[C@H]1COCC[C@H]1Nc1cc2cn[nH]c(=O)c2c(Nc2cccc3cc[nH]c23)n1 [Example 3.4, 7-((3R,4R)-3-Amino-tetrahydro-pyran-4-ylamino)-5-(1H-indol-7-ylamino)-3H-pyrido[3,4-d]pyridazin-4-one]",32 nM
10,"Cc1c[nH]c2c(Nc3nc(N[C@@H]4CCCC[C@@H]4N)c(F)c4cn[nH]c(=O)c34)cc(F)cc12 [Example 1.1, 7-((1R,2S)-2-Amino-cyclohexylamino)-8-fluoro-5-(5-fluoro-3-methyl-1H-indol-7-ylamino)-3H-pyrido[3,4-d]pyridazin-4-one]",2 nM

# Continued, values first:
row,IC50,Compound
1,16 nM,"Cc1cc2c(Nc3nc(N[C@@H]4CCCC[C@@H]4N)cc4cn[nH]c(=O)c34)cccc2[nH]1 [Example 2.17, 7-((1R,2S)-2-Amino-cyclohexylamino)-5-(2-methyl-1H-indol-4-ylamino)-3H-pyrido[3,4-d]pyridazin-4-one]"
2,0.6 nM,"Cn1ccc2c(Nc3nc(N[C@@H]4CCCC[C@@H]4N)cc4cn[nH]c(=O)c34)cccc21 [Example 2.2, 7-((1R,2S)-2-Amino-cyclohexylamino)-5-(1-methyl-1H-indol-4-ylamino)-3H-pyrido[3,4-d]pyridazin-4-one]"
3,9 nM,"Cc1ccc(Nc2nc(N[C@@H]3CCCC[C@@H]3N)cc3cn[nH]c(=O)c23)c2cc[nH]c12 [Example 2.15, 7-((1R,2S)-2-Amino-cyclohexylamino)-5-(7-methyl-1H-indol-4-ylamino)-3H-pyrido[3,4-d]pyridazin-4-one]"
4,1.6 nM,"Cc1c[nH]c2c(Nc3nc(N[C@@H]4CCCC[C@@H]4N)cc4cn[nH]c(=O)c34)cccc12 [Example 2.1, 7-((1R,2S)-2-Amino-cyclohexylamino)-5-(3-methyl-1H-indol-7-ylamino)-3H-pyrido[3,4-d]pyridazin-4-one]"
5,2 nM,"N[C@H]1CCCC[C@H]1Nc1cc2cn[nH]c(=O)c2c(Nc2cccc3occc23)n1 [Example 2.6, 7-((1R,2S)-2-Amino-cyclohexylamino)-5-(benzofuran-4-ylamino)-3H-pyrido[3,4-d]pyridazin-4-one]"
6,7 nM,"N[C@H]1CCCC[C@H]1Nc1cc2cn[nH]c(=O)c2c(Nc2cccc3cc[nH]c23)n1 [Example 2.12, 7-((1R,2S)-2-Amino-cyclohexylamino)-5-(1H-indol-7-ylamino)-3H-pyrido[3,4-d]pyridazin-4-one]"
7,45 nM,"N[C@H]1CCCC[C@H]1Nc1cc2cn[nH]c(=O)c2c(Nc2cccc3cccnc23)n1 [Example 2.20, 7-((1R,2S)-2-Amino-cyclohexylamino)-5-(quinolin-8-ylamino)-3H-pyrido[3,4-d]pyridazin-4-one]"
8,2.3 nM,"Cc1ccc2c(Nc3nc(N[C@@H]4CCCC[C@@H]4N)cc4cn[nH]c(=O)c34)cccc2n1 [Example 2.8, 7-((1R,2S)-2-Amino-cyclohexylamino)-5-(2-methyl-quinolin-5-ylamino)-3H-pyrido[3,4-d]pyridazin-4-one]"
9,5.2 nM,"N[C@H]1CCCC[C@H]1Nc1cc2cn[nH]c(=O)c2c(Nc2cccc3[nH]ncc23)n1 [Example 2.10, 7-((1R,2S)-2-Amino-cyclohexylamino)-5-(1H-indazol-4-ylamino)-3H-pyrido[3,4-d]pyridazin-4-one]"
10,1.1 nM,"Cn1cc2c(Nc3nc(N[C@@H]4CCCC[C@@H]4N)cc4cn[nH]c(=O)c34)cccc2n1 [Example 2.3, 7-((1R,2S)-2-Amino-cyclohexylamino)-5-(2-methyl-2H-indazol-4-ylamino)-3H-pyrido[3,4-d]pyridazin-4-one]"
11,9 nM,"N[C@H]1CCCC[C@H]1Nc1cc2cn[nH]c(=O)c2c(Nc2cccc3ncccc23)n1 [Example 2.16, 7-((1R,2S)-2-Amino-cyclohexylamino)-5-(quinolin-5-ylamino)-3H-pyrido[3,4-d]pyridazin-4-one]"
12,2.7 nM,"N[C@H]1CCCC[C@H]1Nc1cc2cn[nH]c(=O)c2c(Nc2cccc3[nH]ccc23)n1 [Example 2.9, 7-((1R,2S)-2-Amino-cyclohexylamino)-5-(1H-indol-4-ylamino)-3H-pyrido[3,4-d]pyridazin-4-one]"
13,8 nM,"N#Cc1c[nH]c2c(Nc3nc(N[C@@H]4CCCC[C@@H]4N)cc4cn[nH]c(=O)c34)cccc12 [Example 2.14, 7-[7-((1R,2S)-2-Amino-cyclohexylamino)-4-oxo-3,4-dihydro-pyrido[3,4-d]pyridazin-5-ylamino]-1H-indole-3-carbonitrile]"
14,42 nM,"N[C@H]1CCCC[C@H]1Nc1cc2cn[nH]c(=O)c2c(Nc2ccc3cccnc3c2)n1 [Example 2.19, 7-((1R,2S)-2-Amino-cyclohexylamino)-5-(quinolin-7-ylamino)-3H-pyrido[3,4-d]pyridazin-4-one]"
15,7 nM,"Cc1ccc(Nc2nc(N[C@@H]3CCCC[C@@H]3N)cc3cn[nH]c(=O)c23)c2cccnc12 [Example 2.13, 7-((1R,2S)-2-Amino-cyclohexylamino)-5-(8-methyl-quinolin-5-ylamino)-3H-pyrido[3,4-d]pyridazin-4-one]"
16,2.1 nM,"N[C@H]1CCCC[C@H]1Nc1cc2cn[nH]c(=O)c2c(Nc2cccc3sccc23)n1 [Example 2.7, 7-((1R,2S)-2-Amino-cyclohexylamino)-5-(benzo[b]thiophen-4-ylamino)-3H-pyrido[3,4-d]pyridazin-4-one]"
